Patent US10144715B2, “Piperazine derivatives as liver X receptor modulators” (priority 2014, dated 2018)
pEC50, pIC50, pKi: −log10 of the molar value. Where two headings read alike, the source gives them in different places.

Tests used:
LXR α LBD protein [1] = target: T1, LXR α LBD protein (Homo sapiens (Human), UniProt Q13133); test: Human LXRα coactivator recruitment FRET assay, agonist mode; format: biochemical
In short: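 Time-resolved FRET (delay 100 µs, window 200 µs) after 2 h rt incubation of compound with 10 nM (2×) GST-tagged LXRα or LXRβ LBD plus 200 nM fluorescein-SRC2-3 and 20 nM Tb-anti-GST (4×). Percent control vs concentration fit to four-parameter model; EC50 at inflection.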

[2] = target: T2, Gal4 DNA binding domain fused to the LBD of LXRα in HEK293 cells (Homo sapiens (Human), UniProt Q13133); test: LXR luciferase transcriptional reporter gene assay, antagonist mode (200 nM T0901317), LXRα; format: cell-based; details: for pIC50: read-out: Cell LXRα IC50
LXR α LBD protein [3] = target: T1, LXR α LBD protein; test: LXR α radioligand binding assay (SPA, competition with [3H]TO901317); details: read-out: LXRα Binding Ki
[4] = target: T2, Gal4 DNA binding domain fused to the LBD of LXRα in HEK293 cells; test: LXR luciferase transcriptional reporter gene assay, agonist mode, LXRα; format: cell-based; details: for pEC50: read-out: Cell LXRα EC50
[5] = target: Gal4 DNA binding domain fused to the LBD of LXRβ in HEK293 cells (Homo sapiens (Human), UniProt P55055); test: cell-based; details: Biological Test Example 2, agonist mode
LXR β LBD protein = LXR β LBD protein (Homo sapiens (Human), UniProt P55055); test: biochemical; format: binding; details: Biological Test Example 1; read-out: LXRβ Binding Ki
[6] = Biological Test Example 3, agonist mode
[7] = antagonist mode, 200 nM T0901317, HEK293 reporter gene assay

T1 sequence (Q13133 209-447): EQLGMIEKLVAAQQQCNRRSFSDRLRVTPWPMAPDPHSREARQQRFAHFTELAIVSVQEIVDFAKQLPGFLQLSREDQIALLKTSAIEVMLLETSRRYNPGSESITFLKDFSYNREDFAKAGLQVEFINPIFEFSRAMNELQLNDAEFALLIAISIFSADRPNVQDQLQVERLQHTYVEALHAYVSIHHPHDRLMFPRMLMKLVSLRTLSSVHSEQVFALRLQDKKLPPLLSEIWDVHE
T2 sequence (Q13133 209-447): as above
Sequence of Gal4 DNA binding domain fused to the LBD of LXRβ in HEK293 cells (P55055 222-460 limits assumed): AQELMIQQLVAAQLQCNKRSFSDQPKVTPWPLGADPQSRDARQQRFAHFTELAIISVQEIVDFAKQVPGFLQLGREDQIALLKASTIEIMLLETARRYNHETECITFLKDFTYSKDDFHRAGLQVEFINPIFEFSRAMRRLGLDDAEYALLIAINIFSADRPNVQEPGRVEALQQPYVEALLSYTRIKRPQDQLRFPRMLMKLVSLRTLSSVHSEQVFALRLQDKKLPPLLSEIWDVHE
Sequence of LXR β LBD protein (P55055 222-460 limits assumed): as above

| SMILES | pEC50 (LXR α LBD protein [1]; agonist mode) | FRET LXRα efficacy (LXR α LBD protein [1]; agonist mode) [%] | Cell LXRα efficacy [2] | pIC50 [2] | pKi (LXR α LBD protein [3]) | Cell LXRα efficacy [4] | pEC50 [4] | pEC50 (LXR α LBD protein [1]; [6]) | FRET LXRα efficacy (LXR α LBD protein [1]; [6]) [%] | pIC50 [2, 7] | pEC50 ([4]; Biological Test Example 2, agonist mode) | Cell LXRβ efficacy [5] [%] | pEC50 ([5]; read-out: Cell LXRβ EC50) | pKi (LXR β LBD protein) | pEC50 ([4]; agonist mode) |
| --- | --- | --- | --- | --- | --- | --- | --- | --- | --- | --- | --- | --- | --- | --- | --- |
| CS(=O)(=O)c1cccc(N2CCN(C[C@H]3CC[C@H](C(F)F)CC3)[C@@H](c3ccccc3)C2)c1 (single isomer, unassigned) [48-19] | 5.73 | 13 | 1630 (67) % | 5.79 | 6.50 | 712 (25) % | 6.15 |  |  |  |  |  |  |  |  |
| CS(=O)(=O)c1cccc(N2CCN(CC3CCN(CC(F)(F)F)CC3)[C@@H](c3ccccc3)C2)c1 (single isomer, unassigned) [48-52] |  |  | 4773 (89) % |  |  | 736 (30) % |  | 5.97 | 32 | 5.32 | 6.13 |  |  |  |  |
| CS(=O)(=O)c1cccc(N2CCN(C[C@H]3CC[C@@]4(CC3)CC4(F)F)[C@@H](c3ccccc3)C2)c1 (single isomer, unassigned) [48-69] |  |  |  | < 5.00 | 6.95 | 425 (69) % | 6.37 |  |  |  |  | 43 | 6.82 | 7.85 |  |
| CS(=O)(=O)c1cccc(N2CCN(C[C@H]3CC[C@@H](C(F)F)CC3)[C@@H](c3ccccc3)C2)c1 (single isomer, unassigned) [Cpd No 48-17] | 6.54 | 36 |  |  | 7.22 | 127 (39) % |  |  |  | 5.87 |  |  |  |  | 6.90 |
| CC(C)C[C@@H]1CN(c2cccc(S(C)(=O)=O)c2)CCN1C(=O)OC(C)(C)C [1-3, tert-butyl (R)-2-isobutyl-4-(3-(methylsulfonyl)phenyl)piperazine-1-carboxylate] | 5.77 | 43 |  |  |  | 955 (34) % |  |  |  | 5.54 |  |  |  |  | 6.02 |
| CC(C)(C)OC(=O)N1CCN(c2cccc(S(C)(=O)=O)c2)C[C@H]1Cc1ccccc1 [1-8, tert-butyl (R)-2-benzyl-4-(3-(methylsulfonyl)phenyl)piperazine-1-carboxylate] | 6.98 | 18 |  |  |  | 1146 (34) % |  |  |  | 5.33 |  |  |  |  | 5.94 |
| CC(C)[C@@H]1CN(c2ccc(C(N)=O)c(S(C)(=O)=O)c2)CCN1c1nccc(C(F)(F)F)n1 [4-2, (R)-4-(3-isopropyl-4-(4-(trifluoromethyl)pyrimidin-2-yl)piperazin-1-yl)-2-(methylsulfonyl)benzamide] | 6.53 | 87 |  |  |  | 1172 (71) % |  |  |  | < 5.00 |  |  |  |  | 5.93 |
| CC(C)[C@@H]1CN(c2cccc(S(C)(=O)=O)c2)CCN1C(=O)OCC(C)(C)C [5-6, neopentyl (R)-2-isopropyl-4-(3-(methylsulfonyl)phenyl)piperazine-1-carboxylate] | 6.63 | 52 |  |  |  | 1424 (48) % |  |  |  | 5.02 |  |  |  |  | 5.85 |
| CC(C)COC(=O)N1CCN(c2cccc(S(C)(=O)=O)c2)C[C@H]1C(C)C [5-7, isobutyl (R)-2-isopropyl-4-(3-(methylsulfonyl)phenyl)piperazine-1-carboxylate] | 6.47 | 58 |  |  |  | 1919 (44) % |  |  |  | 5.29 |  |  |  |  | 5.72 |
| CC(C)[C@@H]1CN(c2cccc(S(C)(=O)=O)c2)CCN1c1ncccn1 [7-2, (R)-2-(2-isopropyl-4-(3-(methylsulfonyl)phenyl)piperazin-1-yl)pyrimidine] | 5.99 | 23 |  |  |  |  |  |  |  | 5.26 |  |  |  |  | < 4.70 |
| Cc1nc(N2CCN(c3ccc(F)c(S(C)(=O)=O)c3)C[C@H]2C(C)C)ncc1F [7-23, (R)-5-fluoro-2-(4-(4-fluoro-3-(methylsulfonyl)phenyl)-2-isopropylpiperazin-1-yl)-4-methylpyrimidine] | 5.95 | 73 |  |  |  | 1531 (52) % |  |  |  | < 5.00 |  |  |  |  | 5.82 |
| CC(C)[C@@H]1CN(c2cccc(S(C)(=O)=O)c2)CCN1c1ccnc(C(F)(F)F)n1 [7-50, (R)-4-(2-isopropyl-4-(3-(methylsulfonyl)phenyl)piperazin-1-yl)-2-(trifluoromethyl)pyrimidine] | 6.53 | 59 | 4587 (78) % |  |  | 2029 (50) % |  |  |  | 5.34 |  |  |  |  | 5.69 |
| CS(=O)(=O)c1cccc(N2CCN(Cc3ccc(C(F)(F)F)c(Cl)c3)C(C3CCCCC3)C2)c1 (centres unmarked) [46-27, 1-(3-chloro-4-(trifluoromethyl)benzyl)-2-cyclohexyl-4-(3-(methylsulfonyl)phenyl)piperazine] | 6.80 | 79 |  |  |  | 1100 (77) % |  |  |  | < 5.00 |  |  |  |  | 5.96 |
| CS(=O)(=O)c1cccc(N2CCN(C[C@H]3CCC[C@H](C(F)(F)F)C3)[C@@H](c3ccc(F)cc3)C2)c1 [48-40, (S)-2-(4-fluorophenyl)-4-(3-(methylsulfonyl)phenyl)-1-(((1S,3S)-3-(trifluoromethyl)cyclohexyl)methyl)piperazine] |  |  |  |  | 5.61 |  |  |  |  | < 5.00 |  |  |  |  | < 4.70 |
| CC(C)[C@@H]1CN(c2cccc(S(C)(=O)=O)c2)CCN1c1ncc(Cl)cn1 [Cpd No 7-4, (R)-5-chloro-2-(2-isopropyl-4-(3-(methylsulfonyl)phenyl)piperazin-1-yl)pyrimidine] | 6.55 | 76 |  |  |  | 1219 (70) % |  |  |  | < 5.00 |  |  |  |  | 5.91 |
| CC(C)[C@@H]1CN(c2cccc(S(C)(=O)=O)c2)CCN1c1ccc(C(F)(F)F)cn1 [Cpd No 7-35, (R)-2-isopropyl-4-(3-(methylsulfonyl)phenyl)-1-(5-(trifluoromethyl)pyridin-2-yl)piperazine] | 7.89 | 79 |  |  |  | 138 (97) % |  |  |  | < 5.00 |  |  |  |  | 6.86 |
| CC(C)[C@@H]1CN(c2ccc(F)c(S(C)(=O)=O)c2)CCN1c1ncc(Cc2ccc(C(=O)O)cc2)c(C(F)(F)F)n1 [Cpd No 32-1, (R)-4-((2-(4-(4-fluoro-3-(methylsulfonyl)phenyl)-2-isopropylpiperazin-1-yl)-4-(trifluoromethyl)pyrimidin-5-yl)methyl)benzoic acid] |  |  |  | 6.26 | 6.71 | 4667 (6) % | 5.33 |  |  |  |  |  |  |  |  |
| CS(=O)(=O)c1cccc(N2CCN(CC3CCC(O)(C(F)(F)F)CC3)[C@@H](c3ccccc3)C2)c1 (stereo partly drawn) [Cpd No 48-1, (S)-4-((4-(3-(methylsulfonyl)phenyl)-2-phenylpiperazin-1-yl)methyl)-1-(trifluoromethyl)cyclohexan-1-ol] | 5.82 | 19 | 3946 (105) % | 5.40 |  | 760 (31) % | 6.12 |  |  |  |  |  |  |  |  |
| CC1(C)CCC(CN2CCN(c3cccc(S(C)(=O)=O)c3)C[C@@H]2c2ccccc2)CC1 [Cpd No 48-4, (S)-1-((4,4-dimethylcyclohexyl)methyl)-4-(3-(methylsulfonyl)phenyl)-2-phenylpiperazine] | 6.52 | 39 | 6447 (79) % | 5.19 | 7.41 | 279 (61) % | 6.55 |  |  |  |  |  |  |  |  |
